Values of other authors in patent publication US6537525B1, “Medicated chewing-gum” (priority 1997, dated 2003).

Key:
[1] = tested on: esophageal lesions associated with heartburn; settings: versus placebo or ranitidine
[2] = antacid; versus magnesium trisilicate or magnesium carbonate

| Compound | effectiveness in the healing of esophageal lesions associated with heartburn [1] | potency relative to magnesium trisilicate or magnesium carbonate [2] [times] |
| --- | --- | --- |
| NC(N)=Nc1nc(CSCCC(N)=NS(N)(=O)=O)cs1 [Famotidine] | significantly more effective than placebo or ranitidine |  |
| [O]=[Mg] [Magnesium oxide, magnesium oxide] |  | 8 to 10 |
